According to patent publication US20080045498A1, “[…] INHIBITORS” (Genelabs Technologies, Inc., priority 2006, published 2008):

test system: HCV RNA dependent RNA polymerase; assay: HCV replicon assay (luciferase, Huh-lucubineo-ET cells); type: cell-based; conditions: Hepatitis C virus; tested at 25 μM; ET (Huh-lucubineo-ET) replicon cell line; luciferase activity measured 48-72 hours after compound addition; relative to no compound control
Description: A cell line, ET (Huh-lucubineo-ET) was used for screening of compounds for inhibiting HCV RNA dependent RNA polymerase. The ET cell line was stably transfected with RNA transcripts harboring a I389luc-ubi-neo/NS3-3′/ET; replicon with firefly luciferase-ubiquitin-neomycin phosphotransferase fusion protein and EMCV-IRES driven NS3-5B polyprotein containing the cell culture adaptive mutations (E1202G; T1280I; K1846T) (Krieger at al, 2001 and unpublished). The ET cells were grown in DMEM (Dulbeco's Modified Eagle's Medium), supplemented with 10% fetal calf serum, 2 mM Glutamine, Penicillin (100 IU/mL)/Streptomycin (100 μg/mL), 1× nonessential amino acids, and 250 μg/mL G418 (“Geneticin”). Reagents are all available through Life Technologies (Bethesda, Md.). The cells were plated at 0.5−1.0×10^4 cells/well in the 96 well plates and incubated for 24 hrs before adding test compound. The compounds were added to the cells to achieve a final concentration of 0.1 nM to 50 μM and a final DMSO (dimethylsulfoxide) concentration of 0.5%. Luciferase activity was measured 48-72 hours later by adding a lysis buffer and the substrate (Catalog number Glo-lysis buffer E2661 and Bright-Glo luciferase system E2620 Promega, Madison, Wis.). Cells should not be too confluent during the assay. Percent inhibition of replication data is plotted relative to no compound control. Under the same condition, cytotoxicity of the compounds were determined using cell proliferation reagent, WST-1 (Roche, Germany). The compounds showing antiviral activities, but no significant cytotoxicities were chosen to determine EC50 and TC50 the effective concentration and toxic concentration at which 50% of the maximum inhibition is observed. For these determinations, a 10 point, 2-fold serial dilution for each compound was used, which spans a concentration range of 1000 fold. EC50 and similarly TC50 values were calculated by fitting % inhibition at each concentration to the following equation: % inhibition=100%/[(EC50/[I])b+1] where b is Hill's coefficient.

| Structure (SMILES) | inhibition at 25 µM |
| --- | --- |
| O=C(O)c1ccc2c(C3CCCCC3)c3n(c2c1)CCCn1c-3nc2ccccc21 [Compound 225] | 7% |
| O=C(O)c1ccc2c(C3CCCCC3)c3n(c2c1)CCCCn1c-3nc2ccccc21 [Compound 226] | 23% |
| O=C(O)c1ccc2c(C3CCCCC3)c3n(c2c1)CCCn1c-3cc2ccccc21 [Compound 227] | 94% |
| O=C(O)c1ccc2c(C3CCCCC3)c3n(c2c1)CCCCn1c-3cc2ccccc21 [Compound 228] | 97% |
| O=C(O)c1ccc2c(C3CCCCC3)c3n(c2c1)CCCCCn1c-3cc2ccccc21 [Compound 229] | 86% |
| O=C(O)c1ccc2c(C3CCCCC3)c3n(c2c1)CCCCn1c-3cc2c(OCc3ccccc3)cccc21 [Compound 230] | 75% |
| O=C(O)c1ccc2c(C3CCCCC3)c3n(c2c1)CCCCn1c-3cc2cc(OCc3ccccc3)ccc21 [Compound 231] | 96% |
| O=C(O)c1ccc2c(C3CCCCC3)c3n(c2c1)CCCCn1c-3cc2ccc(OCc3ccccc3)cc21 [Compound 232] | 91% |
| COc1ccc2c(c1)cc1n2CCCCn2c-1c(C1CCCCC1)c1ccc(C(=O)O)cc12 [Compound 233] | 96% |
| O=C(O)c1ccc2c(C3CCCCC3)c3n(c2c1)CCCCn1c-3cc2cc(O)ccc21 [Compound 234] | 99% |
| COc1ccc2cc3n(c2c1)CCCCn1c-3c(C2CCCCC2)c2ccc(C(=O)O)cc21 [Compound 235] | 99% |
| O=C(O)c1ccc2c(C3CCCCC3)c3n(c2c1)CCCCn1c-3cc2ccc(O)cc21 [Compound 236] | 100% |
| Cc1nc(C)c(-c2ccc3c4c(ccc3n2)-c2c(C3CCCCC3)c3ccc(C(=O)O)cc3n2CC(=O)N4)s1 [Compound 237] | 100% |
